In the supplement of paper PMC13380429:

Legend:
Conditions in all cases: 72 h
HepG2 [1] = experiment: drug sensitivity score (DSS) for viability; higher = more toxic; extreme values may be limits of the assay
Calu-3 [2] = experiment: as above
Vero E6 [3] = experiment: as above
U2OS [4] = experiment: as above
Caco-2 [5] = experiment: as above
HepG2 [6] = experiment: relative viability EC50 (midpoint between 100% and the lowest measured viability); higher = less toxic
Calu-3 [7] = experiment: as above
Vero E6 [8] = experiment: as above
U2OS [9] = experiment: as above
Caco-2 [10] = experiment: as above
HepG2 [11] = experiment: cell viability relative to DMSO; higher = less toxic
Calu-3 [12] = experiment: as above
Vero E6 [13] = experiment: as above
U2OS [14] = experiment: as above
Caco-2 [15] = experiment: as above

Row | Structure (SMILES) | drug sensitivity score (HepG2 [1]) | drug sensitivity score (Calu-3 [2]) | drug sensitivity score (Vero E6 [3]) | drug sensitivity score (U2OS [4]) | drug sensitivity score (Caco-2 [5]) | relative viability EC50 (HepG2 [6]) [µM] | relative viability EC50 (Calu-3 [7]) [µM] | relative viability EC50 (Vero E6 [8]) [µM] | relative viability EC50 (U2OS [9]) [µM] | relative viability EC50 (Caco-2 [10]) [µM] | cell viability (HepG2 [11]; 1 nM) [%] | cell viability (HepG2 [11]; 10 nM) [%] | cell viability (HepG2 [11]; 100 nM) [%] | cell viability (HepG2 [11]; 1000 nM) [%] | cell viability (HepG2 [11]; 10000 nM) [%] | cell viability (Calu-3 [12]; 1 nM) [%] | cell viability (Calu-3 [12]; 10 nM) [%] | cell viability (Calu-3 [12]; 100 nM) [%] | cell viability (Calu-3 [12]; 1000 nM) [%] | cell viability (Calu-3 [12]; 10000 nM) [%] | cell viability (Vero E6 [13]; 1 nM) [%] | cell viability (Vero E6 [13]; 10 nM) [%] | cell viability (Vero E6 [13]; 100 nM) [%] | cell viability (Vero E6 [13]; 1000 nM) [%] | cell viability (Vero E6 [13]; 10000 nM) [%] | cell viability (U2OS [14]; 1 nM) [%] | cell viability (U2OS [14]; 10 nM) [%] | cell viability (U2OS [14]; 100 nM) [%] | cell viability (U2OS [14]; 1000 nM) [%] | cell viability (U2OS [14]; 10000 nM) [%] | cell viability (Caco-2 [15]; 1 nM) [%] | cell viability (Caco-2 [15]; 10 nM) [%] | cell viability (Caco-2 [15]; 100 nM) [%] | cell viability (Caco-2 [15]; 1000 nM) [%] | cell viability (Caco-2 [15]; 10000 nM) [%]
1 | NS(=O)(=O)c1cc2c(cc1Cl)N=C(CSCc1ccccc1)NS2(=O)=O [benzthiazide] | 0 | 0 | 0 | 0 | 0.9 | > 10 | > 10 | > 10 | > 10 | > 10 | 105 | 86 | 101 | 94.3 | 89.7 | 84.5 | 104 | 101 | 106 | 101 | 102 | 98.5 | 98.4 | 101 | 98.9 | 100 | 98.8 | 94.6 | 98.4 | 96 | 103 | 101 | 93.2 | 96.2 | 80.7
2 | Cc1ccc(CC2(O)CCN(CCOc3ccc(O)cc3)CC2)cc1 | 1 | 0 | 0 | 0 | 0 | > 10 | > 10 | > 10 | > 10 | > 10 | 100 | 90.4 | 108 | 90.3 | 84.6 | 110 | 96.5 | 91.7 | 95.9 | 96.9 | 103 | 101 | 99.4 | 99.6 | 93.1 | 100 | 96.8 | 97.8 | 97.1 | 99.7 | 103 | 101 | 95.5 | 91.7 | 92.2
3 | CC(C)(Oc1ccc(Cl)cc1)C(=O)O [clofibric-acid] | 0 | 0 | 0 | 0 | 0 | > 10 | > 10 | > 10 | > 10 | > 10 | 93.7 | 106 | 95.6 | 105 | 96.2 | 94.2 | 96.5 | 100 | 92.5 | 96.2 | 102 | 101 | 97.7 | 93.3 | 94.2 | 101 | 95.1 | 99.9 | 94.9 | 99.2 | 95.5 | 96.6 | 101 | 99.3 | 99.1
4 | O=[N+]([O-])c1cc(Cl)ccc1S(=O)(=O)N1CCN(Cc2ccccc2)CC1 [RN-1747] | 0 | 0 | 0 | 0 | 0 | > 10 | > 10 | > 10 | > 10 | > 10 | 105 | 92.9 | 104 | 86.9 | 104 | 96.4 | 104 | 94.6 | 102 | 106 | 99.5 | 92.2 | 93.4 | 96.1 | 102 | 94.6 | 100 | 96.2 | 102 | 106 | 94.3 | 94 | 96.2 | 106 | 99.9
5 | C#C[C@]1(O)CC[C@H]2[C@@H]3CCC4=CC(=NO)CC[C@@H]4[C@H]3CC[C@@]21CC (mixture of isomers) [norelgestromin] | 0 | 0 | 0 | 0 | 0 | > 10 | > 10 | > 10 | > 10 | > 10 | 95.9 | 101 | 105 | 108 | 110 | 102 | 95.2 | 103 | 93.5 | 101 | 102 | 101 | 92 | 99.1 | 103 | 99.1 | 101 | 94.4 | 101 | 98.6 | 89 | 94.1 | 91.7 | 98.3 | 98.5
6 | COc1cc(-n2c(=S)[nH]c3ccccc3c2=O)c(Cl)cc1Cl [mdivi-1] | 0 | 0 | 0 | 0 | 0.1 | > 10 | > 10 | > 10 | > 10 | > 10 | 94.8 | 94.3 | 99.9 | 95.7 | 88.3 | 95.2 | 97.8 | 96.2 | 98.6 | 92.1 | 97.8 | 106 | 95.1 | 97.3 | 93 | 99.6 | 104 | 101 | 99.7 | 92.4 | 103 | 98.1 | 94.2 | 94.4 | 86.6
7 | CCOC(=O)C1=C[C@]2(CC)CCCN3CCc4c(n1c1ccccc41)[C@@H]32 [vinpocetine] | 0 | 0 | 0 | 0 | 0 | > 10 | > 10 | > 10 | > 10 | > 10 | 97.7 | 94 | 99.7 | 89.7 | 108 | 106 | 95.9 | 94 | 105 | 98.3 | 98.8 | 87.7 | 95.9 | 91.8 | 107 | 97.6 | 101 | 102 | 101 | 101 | 92 | 96.7 | 91.7 | 98.4 | 104
8 | NC(=O)C1CCCc2c1[nH]c1ccc(Cl)cc21 (stereo not drawn) [EX-527] | 0 | 0 | 0 | 0 | 0 | > 10 | > 10 | > 10 | > 10 | > 10 | 93.3 | 107 | 98 | 110 | 106 | 107 | 101 | 107 | 96.6 | 94.7 | 94.1 | 107 | 93.7 | 98.9 | 109 | 95.9 | 93.2 | 105 | 93.4 | 98.1 | 99.7 | 94.8 | 98.5 | 92 | 103
9 | N#CC(c1ccnc(OCc2ccc(CN3CCOCC3)cc2)n1)c1nc2ccccc2s1 (stereo not drawn) [PGL5001] | 1.5 | 0 | 0 | 0 | 0.3 | > 10 | > 10 | > 10 | > 10 | > 10 | 98.4 | 102 | 104 | 89.6 | 80.9 | 112 | 104 | 107 | 98.5 | 102 | 99.8 | 98.3 | 93.1 | 101 | 98.8 | 102 | 97.5 | 98.7 | 103 | 92 | 103 | 86 | 98.4 | 97 | 83.5
10 | O=C(Nc1cc(Cl)cc(Cl)c1O)c1c(O)c(Cl)cc(Cl)c1Cl [oxyclozanide] | 0 | 0 | 0 | 0 | 0 | > 10 | > 10 | > 10 | > 10 | > 10 | 105 | 99.2 | 96.4 | 98 | 101 | 107 | 90.4 | 104 | 88.7 | 103 | 95 | 98.6 | 96.2 | 101 | 95.4 | 98.7 | 97.6 | 97.8 | 100 | 97.2 | 98.4 | 106 | 91.7 | 91.9 | 97.4
11 | NC1CCN(c2cccc(Cl)n2)CC1 | 0 | 0 | 0 | 0 | 0 | > 10 | > 10 | > 10 | > 10 | > 10 | 94.8 | 100 | 102 | 111 | 101 | 89.4 | 93 | 99.5 | 87.9 | 102 | 101 | 100 | 94.3 | 96 | 96.2 | 101 | 101 | 101 | 102 | 95.2 | 95.9 | 97 | 96.6 | 103 | 96.5
12 | CCOC(=O)c1ncn2c1CN(C)C(=O)c1cc(N=[N+]=[N-])ccc1-2 [Ro-15-4513] | 0 | 0 | 0 | – | 0 | > 10 | > 10 | > 10 | – | > 10 | 107 | 92.2 | 102 | 99.1 | 112 | 103 | 93.9 | 97 | 102 | 108 | 94.6 | 94 | 99.3 | 97.2 | 104 | – | – | – | – | – | 96.2 | 100 | 94.6 | 99.6 | 109
13 | COc1ccc(CN2CCN(C(c3ccc(F)cc3)c3ccc(F)cc3)CC2)c(OC)c1OC [lomerizine] | 0 | 0 | 0 | 0 | 0.3 | > 10 | > 10 | > 10 | > 10 | > 10 | 110 | 102 | 102 | 93 | 106 | 88.9 | 98.3 | 94 | 139 | 96 | 92.7 | 96.5 | 91.7 | 93.7 | 96.7 | 89.7 | 99.3 | 90.3 | 95.1 | 99.1 | 96.9 | 104 | 87.9 | 98.8 | 82.7
14 | CCc1c2c(nc3ccc(O)cc13)-c1cc3c(c(=O)n1C2)COC(=O)[C@]3(O)CC [SN-38] | 32.4 | 19.7 | 11.9 | 16.2 | 15.6 | 0.0122 | 0.0579 | 0.65 | 0.326 | 0.183 | 86.6 | 48.6 | 29.5 | 5.6 | 2.4 | 112 | 85.9 | 54 | 25.1 | 28.8 | 102 | 101 | 71.2 | 58.3 | 9.6 | 107 | 102 | 79.9 | 25.8 | 4.9 | 99.4 | 89.5 | 73 | 34.1 | 20.7
